One experiment has as its system MftR H68A–Omft complex. Description: Competitive EMSA with H68A mutant and oleoyl-CoA. In kind it is binding, Mycobacterium smegmatis mc^2155. The note with it: up to 100 μM oleoyl-CoA. An excerpt: (§1) Next, we examined which amino acid residues contribute to the interaction between MftR and oleoyl-CoA. The crystal structure of Msmeg MftR is currently unavailable; however, an unpublished structure of Rhodococcus jostii RHA1 MftR has been deposited in the Protein Data Bank (PDB) (PDB ID: 2RAE, 54% identical, Fig. S3). Using this structure, we employed SwissDock to model oleoyl-CoA bound to MftR (Fig. 5) ([41], [42]). From the docked structure, we identified eight conserved residues on MftR that were expected to create the acyl-binding pocket or bind CoA through electrostatic interactions. Following single amino acid replacements of the residues, we measured the Kd values of the mutant proteins to oleoyl-CoA using ITC. For the putative acyl-binding pocket residues Phe65, Phe96, and Ile114, mutations to alanine led to no or modest change to the Kd for oleoyl-CoA (Table 1). […] Conversely, when His68 was mutated to alanine, binding of oleoyl-CoA by the protein was undetectable. To validate this observation, competitive EMSAs were carried out using the H68A mutant. […] Thus, it is highly likely that His68 is an important residue for oleoyl-CoA binding. To evaluate residues that were expected to interact with CoA, Gln15, Asp16, Ser67, and Asp66 were targeted. Of these, mutants of Asp16 and Ser67 had the greatest effect (Table 1). […]

Another experiment concerns MftR D16R–Omft complex. Description: Competitive EMSA with D16R mutant and oleoyl-CoA. In kind it is binding, Mycobacterium smegmatis mc^2155. Particulars: up to 100 μM oleoyl-CoA.
Text: as §1
Background: In EMSA bound probe runs differently from free probe, usually more slowly.

The target of experiment [1] is T1, MftR S67W (Mycolicibacterium smegmatis, UniProt A0QSB5, S67W).
T1 sequence (A0QSB5 1-200 S67W): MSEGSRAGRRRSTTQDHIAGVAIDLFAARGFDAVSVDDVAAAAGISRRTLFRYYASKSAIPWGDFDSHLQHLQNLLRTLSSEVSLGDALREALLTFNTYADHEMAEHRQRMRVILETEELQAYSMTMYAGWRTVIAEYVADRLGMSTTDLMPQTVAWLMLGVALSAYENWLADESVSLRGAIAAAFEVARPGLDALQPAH
Description: ITC binding of oleoyl-CoA to MftR variant. Set-up: species or system Mycobacterium smegmatis mc^2155. An excerpt:
(§2) Next, we examined which amino acid residues contribute to the interaction between MftR and oleoyl-CoA. The crystal structure of Msmeg MftR is currently unavailable; however, an unpublished structure of Rhodococcus jostii RHA1 MftR has been deposited in the Protein Data Bank (PDB) (PDB ID: 2RAE, 54% identical, Fig. S3). Using this structure, we employed SwissDock to model oleoyl-CoA bound to MftR (Fig. 5) ([41], [42]). From the docked structure, we identified eight conserved residues on MftR that were expected to create the acyl-binding pocket or bind CoA through electrostatic interactions. Following single amino acid replacements of the residues, we measured the Kd values of the mutant proteins to oleoyl-CoA using ITC. For the putative acyl-binding pocket residues Phe65, Phe96, and Ile114, mutations to alanine led to no or modest change to the Kd for oleoyl-CoA (Table 1). […] Conversely, when His68 was mutated to alanine, binding of oleoyl-CoA by the protein was undetectable. To validate this observation, competitive EMSAs were carried out using the H68A mutant. […] Thus, it is highly likely that His68 is an important residue for oleoyl-CoA binding. To evaluate residues that were expected to interact with CoA, Gln15, Asp16, Ser67, and Asp66 were targeted. Of these, mutants of Asp16 and Ser67 had the greatest effect (Table 1). […] This latter observation was validated using competitive EMSAs (Fig. S4B). […] Taken together, it is likely that Ser67 and Asp16 participate in oleoyl-CoA binding, likely through electrostatic interactions.
(§3) Mutant strand synthesis reactions were performed according to the Agilent QuikChange site-directed mutagenesis protocol. The mftR_pET28a plasmid was used as a template for site-directed mutagenesis studies. Sequence-verified plasmids were transformed into E. coli BL21(DE3) pLysS cells for protein production and purified using the same protocol as wildtype MftR.
(§4) ITC was performed using TA Nano ITC. MftR was loaded in the sample cell at the concentration of 16 and 250 μM acyl-CoAs (C12–C18) loaded in the syringe. To minimize the effect of buffer mismatch, the stock concentration of acyl-CoAs was prepared using ITC buffer (50 mM Hepes, 50 mM NaCl, and pH 7.5), and the pH was adjusted to within 0.05 units. In addition, MftR was buffer exchanged into ITC buffer using a PD-10 column (GE Life Sciences). The volume of the titrant added at each injection into the sample cell was 2.22 μl. The time interval between the successive injections was 180 s. The temperature of the cell was kept at 25 °C. The data obtained were fit by independent one-site model using NanoAnalyze Data Analysis, version 3.8.0, that was provided with the instrument.

The next experiment addresses T2, MftR Q15A (Mycolicibacterium smegmatis, UniProt A0QSB5, Q15A).
T2 sequence (A0QSB5 1-200 Q15A): T1 sequence (A0QSB5 1-200 S67W)
Nature of the experiment: ITC binding of oleoyl-CoA to MftR variant. Details: species or system Mycobacterium smegmatis mc^2155.
Text: as §2, §3, §4

A further experiment addresses MftR D16R. Nature of the experiment: ITC binding of oleoyl-CoA to MftR variant. Details: species or system Mycobacterium smegmatis mc^2155. The note with it: ND = not detected.
Text: as §2, §3, §4

Experiment [2] has as its target MftR S67W. Description: ITC binding of oleoyl-CoA to MftR variant. Set-up: species or system Mycobacterium smegmatis mc^2155. The note with it: S67W mutation vs WT, ITC.
Text: as §2, §3, §4

The next experiment concerns the target T3, MftR S67A (Mycolicibacterium smegmatis, UniProt A0QSB5, S67A).
T3 sequence (A0QSB5 1-200 S67A): T1 sequence (A0QSB5 1-200 S67W)
Nature of the experiment: ITC binding of oleoyl-CoA to MftR variant. Set-up: species or system Mycobacterium smegmatis mc^2155.
Text: as §2, §3, §4

The next experiment concerns the target T4, MftR I114A (Mycolicibacterium smegmatis, UniProt A0QSB5, I114A).
T4 sequence (A0QSB5 1-200 I114A): T1 sequence (A0QSB5 1-200 S67W)
Description: ITC binding of oleoyl-CoA to MftR variant. Details: species or system Mycobacterium smegmatis mc^2155.
Text: as §2, §3, §4

A further experiment addresses T5, MftR D66A (Mycolicibacterium smegmatis, UniProt A0QSB5, D66A).
T5 sequence (A0QSB5 1-200 D66A): T1 sequence (A0QSB5 1-200 S67W)
Description: ITC binding of oleoyl-CoA to MftR variant. Details: species or system Mycobacterium smegmatis mc^2155.
Text: as §2, §3, §4

In the next experiment the target is T6, MftR F65A (Mycolicibacterium smegmatis, UniProt A0QSB5, F65A).
T6 sequence (A0QSB5 1-200 F65A): T1 sequence (A0QSB5 1-200 S67W)
Nature of the experiment: ITC binding of oleoyl-CoA to MftR variant. Details: species or system Mycobacterium smegmatis mc^2155.
Text: as §2, §3, §4

In a further experiment the target is MftR H68A. Nature of the experiment: ITC binding of oleoyl-CoA to MftR variant. Details: species or system Mycobacterium smegmatis mc^2155. The note with it: ND = not detected.
Text: as §2, §3, §4

The target in another experiment is T7, MftR D16W (Mycolicibacterium smegmatis, UniProt A0QSB5, D16W).
T7 sequence (A0QSB5 1-200 D16W): T1 sequence (A0QSB5 1-200 S67W)
Description: ITC binding of oleoyl-CoA to MftR variant. Details: species or system Mycobacterium smegmatis mc^2155.
Text: as §2, §3, §4

For another experiment, the target named is T8, MftR F96A (Mycolicibacterium smegmatis, UniProt A0QSB5, F96A).
T8 sequence (A0QSB5 1-200 F96A): T1 sequence (A0QSB5 1-200 S67W)
Description: ITC binding of oleoyl-CoA to MftR variant. Set-up: species or system Mycobacterium smegmatis mc^2155.
Text: as §2, §3, §4

Consider one compound from publication PMC8728441, “Biosynthesis of the redox cofactor mycofactocin is controlled by the transcriptional regulator MftR and induced by long-chain acyl-CoA species” (The Journal of Biological Chemistry, 2021).

In general, Kd refers to the concentration at which binding is half-saturated. Low values mean higher affinity, high ones lower affinity. For the compound `CCCCCCCC/C=C\CCCCCCCC(=O)SCCNC(=O)CCNC(=O)[C@H](O)C(C)(C)COP(=O)(O)OP(=O)(O)OC[C@H]1O[C@@H](n2cnc3c(N)ncnc32)[C@H](O)[C@@H]1OP(=O)(O)O` [oleoyl-CoA], the “release of Omft from H68A mutant” value in the experiment with MftR H68A–Omft complex is on record as “remained bound to Omft”. In addition, the “release of Omft from D16R mutant” value in the experiment on MftR D16R–Omft complex is reported as “remained bound to Omft”. For the same compound, the Kd at MftR S67W [1] was 8.3 ± 0.2 µM; at MftR Q15A, 2 ± 0.1 µM; at MftR D16R it was “no longer detectable”; at MftR S67A, 5.4 ± 0.2 µM; at MftR I114A, 2.4 ± 0.1 µM; on MftR D66A it was 1.6 ± 0.1 µM. The Kd is 1.9 ± 0.1 µM at MftR F65A, “undetectable” at MftR H68A, 4.8 ± 0.2 µM at MftR D16W and 1.4 ± 0.1 µM at MftR F96A. Further, the “increase in the Kd value for oleoyl-CoA” value at MftR S67W [2] is “eightfold increase”.
